Experimental data reported in US20170368082A1, “FORMULATIONS OF BRINCIDOFOVIR” (priority 2016, published 2017).
“And” between values parts separate entries of the source, which are not always exact repeats. Identical values can stand only once.

Assay: Tissue distribution by quantitative whole-body autoradiography (QWBA)
Format: in vivo, male Sprague Dawley and Long-Evans rats
Settings: for Concentration of radioactivity: SD rat
Method: The study utilized 4 groups of male SD rats (albino), and 3 groups of male LE rats (pigmented); a total of 39 rats. All animals were obtained from Hilltop Lab Animals, Inc. (Scottdale, Pa.). […] Rats in Group 5 were administered a single 2-h IV infusion of [^14C]brincidofovir at a target dose of 2 mg/kg. […] Three dosing formulations (one for high dose IV, one for low dose IV, and one for PO dose) were prepared at QPS on the day of dosing. The IV formulation for Groups 1, 2, 3, and 4 contained a vehicle of 10 mM sodium phosphate buffer in 5% dextrose solution at pH 8.0(±0.1).
Each animal, at their respective termination time points, was euthanized for QWBA analysis immediately after blood collection. One rat per time point per Group was euthanized as listed below.
The blood samples were maintained on wet ice (approximately 4° C.) and then centrifuged to obtain plasma within 1 h of the blood collection time. Centrifuge settings were recorded in the study notebook. Duplicate aliquots of plasma (0.050 mL) were analyzed for radioactivity using direct counting by LSC, and residual plasma was stored at approximately −70° C. and was saved for possible future analysis under a separate study protocol. Residual red blood cells were discarded as radioactive waste.
The pinna, distal limbs, hair, and tail were removed from each frozen carcass and each frozen carcass was embedded in an aqueous suspension of approximately 2% (w/v) carboxymethylcellulose and frozen into a block. The blocks were stored at approximately −20° C. prior to sectioning. Each blocked carcass was mounted on the object stage of a cryomicrotome (Leica CM3600 Cryomacrocut, Nussloch, Germany and Vibratome 9800, St. Louis, Mo.) maintained at approximately −20° C. and internal standards (3), which were plasma fortified with [^14C]-glucose at one concentration (approximately 0.05 μCi/mL), were placed into the frozen blocks, prior to sectioning, and were used for section thickness quality control. A number of whole-body sections (approximately 40 μm thick) were taken in the sagittal plane at various levels of interest using a whole-body cryomicrotome set at −20° C. Sagittal sections (20-50 μm thick) of frozen carcasses were exposed to phosphor imaging plates. Regions of images in tissues were converted to concentrations using standards. All of the major tissues, organs, and biological fluids were represented.
Tissue concentration data was determined for the following tissues and/or contents: adipose (brown and white), adrenal gland, bile (in duct), blood (cardiac), bone, bone marrow, brain (cerebrum, cerebellum, medulla), cecum (and contents), large intestine (and contents), epididymis, esophagus, eye (uvea and lens), Harderian gland, heart, kidney (cortex and medulla), liver, lung, lymph node, pancreas, pituitary gland, prostate gland, salivary gland, seminal vesicles, skeletal muscle, skin (pigmented and non-pigmented), small intestine (and contents), stomach (gastric mucosa and contents), spleen, spinal cord, testis, thymus, thyroid, and urinary bladder (and contents).
The imaging plate and sections were placed in light-tight exposure cassettes, in a copper-lined lead safe, for a 4-day exposure at room temperature. […] Quantification was performed by image densitometry using MCD image analysis software (v. 7.0, Interfocus Imaging Ltd) and a standard curve constructed from the integrated response [i.e., Molecular Dynamics Counts per square millimeter (MDC/mm^2)] and the nominal concentrations of the ^14C-calibration standards. The concentrations of radioactivity were expressed as the μg equivalents of [^14C]brincidofovir per gram sample (μg equiv/g). A lower limit of quantification (LLOQ) was applied to the data (See section 6.7.4).
Tissue concentrations that fell below the LLOQ were identified as being below the quantification limit (BQL). Tissue areas that were not visualized on autoradiographic images were identified as no sample (NS) and reported as BQL.

[1] = Group 6 SD albino rats, oral 15 mg/kg, c2 2 h, c3 24 h, c4 168 h, LLOQ 0.034

CCCCCCCCCCCCCCCCOCCCOP(=O)(O)CO[C@H](CO)Cn1ccc(N)nc1=O [[^14C]brincidofovir]
Bile Cmax, IV relative to oral (15 mg/kg): 14 times | Small intestinal tissue concentration, IV relative to oral (15 mg/kg): approximately 1/10 | Small intestine Cmax, oral compared to IV (15 mg/kg): 6 fold | Tissue t1/2: adrenal gland (15 mg/kg 2-h IV): 254 h | Tissue t1/2: blood (cardiac) (15 mg/kg 2-h IV): 14.2 h | Tissue t1/2: bone marrow (15 mg/kg 2-h IV): 276 h | Tissue t1/2: lymph node (15 mg/kg 2-h IV): 345 h | Tissue t1/2: skin non-pigmented (15 mg/kg 2-h IV): 310 h | Tissue t1/2: spleen (15 mg/kg 2-h IV): 378 h | Tissue t1/2: adipose (brown) (15 mg/kg PO): 234 h | Tissue t1/2: esophagus (15 mg/kg PO): 37.2 h | Tissue t1/2: lung (15 mg/kg PO): 93 h | Tissue t1/2: pituitary gland (15 mg/kg PO): 106 h | Tissue t1/2: small intestine (15 mg/kg PO): 98.1 h | Tissue t1/2: spleen (15 mg/kg PO): 115 h | Concentration of radioactivity (Adipose (brown), 2 h, 15 mg/kg IV): 2.088 μg equiv./g | Concentration of radioactivity (Adipose (brown), 24 h, 15 mg/kg IV): 0.473 μg equiv./g | Concentration of radioactivity (Adipose (brown), 168 h, 15 mg/kg IV): 0.391 μg equiv./g | Concentration of radioactivity (Adipose (white), 2 h, 15 mg/kg IV): 0.386 μg equiv./g | Concentration of radioactivity (Adipose (white), 24 h, 15 mg/kg IV): 0.135 μg equiv./g | Concentration of radioactivity (Adipose (white), 168 h, 15 mg/kg IV): BQL (BQL = Value is below the LLOQ) | Concentration of radioactivity (Adrenal Gland, 2 h, 15 mg/kg IV): 4.308 μg equiv./g | Concentration of radioactivity (Adrenal Gland, 24 h, 15 mg/kg IV): 1.680 μg equiv./g | Concentration of radioactivity (Adrenal Gland, 168 h, 15 mg/kg IV): 0.647 μg equiv./g | Concentration of radioactivity (Bile (in duct), 24 h, 15 mg/kg IV): 1.469 μg equiv./g | Concentration of radioactivity (Bile (in duct), 168 h, 15 mg/kg IV): 0.058 μg equiv./g | Concentration of radioactivity (Blood (cardiac), 2 h, 15 mg/kg IV): 6.865 μg equiv./g | Concentration of radioactivity (Blood (cardiac), 24 h, 15 mg/kg IV): 0.308 μg equiv./g | Concentration of radioactivity (Blood (cardiac), 168 h, 15 mg/kg IV): BQL (BQL = Value is below the LLOQ) | Concentration of radioactivity (Bone Marrow, 2 h, 15 mg/kg IV): 3.411 μg equiv./g | Concentration of radioactivity (Bone Marrow, 24 h, 15 mg/kg IV): 1.219 μg equiv./g | Concentration of radioactivity (Bone Marrow, 168 h, 15 mg/kg IV): 0.196 μg equiv./g | Concentration of radioactivity (Bone, 2 h, 15 mg/kg IV): 0.449 μg equiv./g | Concentration of radioactivity (Bone, 24 h, 15 mg/kg IV): 0.095 μg equiv./g | Concentration of radioactivity (Bone, 168 h, 15 mg/kg IV): BQL (BQL = Value is below the LLOQ) | Concentration of radioactivity (Brain (cerebellum), 2 h, 15 mg/kg IV): 0.907 μg equiv./g | Concentration of radioactivity (Brain (cerebellum), 24 h, 15 mg/kg IV): 0.161 μg equiv./g | Concentration of radioactivity (Brain (cerebellum), 168 h, 15 mg/kg IV): BQL (BQL = Value is below the LLOQ) | Concentration of radioactivity (Brain (cerebrum), 2 h, 15 mg/kg IV): 0.803 μg equiv./g | Concentration of radioactivity (Brain (cerebrum), 24 h, 15 mg/kg IV): 0.107 μg equiv./g | Concentration of radioactivity (Brain (cerebrum), 168 h, 15 mg/kg IV): BQL (BQL = Value is below the LLOQ) | Concentration of radioactivity (Brain (medulla), 2 h, 15 mg/kg IV): 0.864 μg equiv./g | Concentration of radioactivity (Brain (medulla), 24 h, 15 mg/kg IV): 0.132 μg equiv./g | Concentration of radioactivity (Brain (medulla), 168 h, 15 mg/kg IV): BQL (BQL = Value is below the LLOQ) | Concentration of radioactivity (Cecum (contents), 2 h, 15 mg/kg IV): 0.085 μg equiv./g | Concentration of radioactivity (Cecum (contents), 24 h, 15 mg/kg IV): 58.016 μg equiv./g | Concentration of radioactivity (Cecum, 2 h, 15 mg/kg IV): 3.658 μg equiv./g | Concentration of radioactivity (Cecum, 24 h, 15 mg/kg IV): 5.981 μg equiv./g | Concentration of radioactivity (Cecum, 168 h, 15 mg/kg IV): 0.099 μg equiv./g | Concentration of radioactivity (Epididymis, 2 h, 15 mg/kg IV): 2.391 μg equiv./g | Concentration of radioactivity (Epididymis, 24 h, 15 mg/kg IV): 0.566 μg equiv./g | Concentration of radioactivity (Epididymis, 168 h, 15 mg/kg IV): 0.234 μg equiv./g | Concentration, Seminal Vesicles (G4 15 mg/kg IV, c3 2 h, c6 8 h, c9 24 h, c12 72 h): 1.374 μg equiv/g tissue and 1.834 μg equiv/g tissue and 1.717 μg equiv/g tissue and 1.127 μg equiv/g tissue | Concentration, Eye (lens) (G5 2 mg/kg IV, c2 2 h, c5 8 h, c8 24 h, c11 72 h, LLOQ 0.005): BQL | Urinary bladder contents (Group 3, 2 h): 47.0 μg equiv/g | Concentration at Tmax: kidney cortex (Group 3 SD, 15 mg/kg 2-h IV): 106.5 μg equiv/g | Concentration at Tmax: kidney medulla (Group 3 SD, 15 mg/kg 2-h IV): 33.4 μg equiv/g | Concentration at Tmax: liver (Group 3 SD, 15 mg/kg 2-h IV): 229.4 μg equiv/g | Concentration at Tmax: small intestine (Group 3 SD, 15 mg/kg 2-h IV): 43.7 μg equiv/g | Concentration at Tmax: urinary bladder (Group 3 SD, 15 mg/kg 2-h IV): 36.0 μg equiv/g | Highest observed concentration in blood (Group 3 SD, 15 mg/kg IV, 2 h): 6.9 μg equiv/g | Concentration in spleen at 840 h post-dose (Group 4, 15 mg/kg IV): 0.270 μg equiv/g | Urinary bladder contents (Group 4, 4 h): 814.4 μg equiv/g | Concentration at Tmax: kidney cortex (Group 4 LE, 15 mg/kg 2-h IV): 97.3 μg equiv/g | Concentration at Tmax: kidney medulla (Group 4 LE, 15 mg/kg 2-h IV): 27.0 μg equiv/g | Concentration at Tmax: liver (Group 4 LE, 15 mg/kg 2-h IV): 229.7 μg equiv/g | Concentration at Tmax: small intestine (Group 4 LE, 15 mg/kg 2-h IV): 71.0 μg equiv/g | Concentration at Tmax: urinary bladder (Group 4 LE, 15 mg/kg 2-h IV): 22.8 μg equiv/g | Highest observed concentration in blood (Group 4 LE, 15 mg/kg IV, 2 h): 5.3 μg equiv/g | Bile (Group 5, 2 h): 32.7 μg equiv/g | Urinary bladder contents (Group 5, 2 h): 22.9 μg equiv/g | Concentration at Tmax: kidney cortex (Group 5 LE, 2 mg/kg 2-h IV): 11.0 μg equiv/g | Concentration at Tmax: kidney medulla (Group 5 LE, 2 mg/kg 2-h IV): 3.4 μg equiv/g | Concentration at Tmax: large intestine (Group 5 LE, 2 mg/kg 2-h IV): 1.0 μg equiv/g | Concentration at Tmax: liver (Group 5 LE, 2 mg/kg 2-h IV): 34.2 μg equiv/g | Concentration at Tmax: small intestine (Group 5 LE, 2 mg/kg 2-h IV): 2.5 μg equiv/g | Highest observed concentration in blood (Group 5 LE, 2 mg/kg IV, 2 h): 0.771 μg equiv/g | Bile (Group 6, 2 h): 9.7 μg equiv/g | Urinary bladder contents (Group 6, 24 h): 39.9 μg equiv/g | Concentration of radioactivity, Brain (cerebrum) [1]: BQL | Concentration of radioactivity, Brain (medulla) [1]: BQL | Concentration of radioactivity, Eye (lens) [1]: BQL | Concentration of radioactivity, Spinal Cord [1]: BQL | Concentration of radioactivity, Epididymis (Group 6 SD albino rats, oral 15 mg/kg, c2 2 h, c3 24 h, c4 168 h, LLOQ 0.034, 15 mg/kg): 0.073 μg equiv./g and 0.091 μg equiv./g and 0.075 μg equiv./g | Concentration at Tmax: cecum (Group 6 SD, 15 mg/kg PO): 7.5 μg equiv/g | Concentration at Tmax: kidney cortex (Group 6 SD, 15 mg/kg PO): 18.4 μg equiv/g
